Results from US20250057853A1 (priority 2023, published 2025).

Conditions: Cohort 5: 4.0 g/kg via 15-minutes IV infusion

Br.CN1[C@@H]2C[C@@H](OC(=O)[C@H](CO)c3ccccc3)C[C@H]1[C@@H]1O[C@@H]12.O.O.O [scopolamine HBr, scopolamine hydrobromide trihydrate]
Number of TEAEs: 25 AEs
